1 substance from patent US8703467B2 (priority 2004, dated 2014) can be followed below.

Where two headings read alike, the source gives them in different places.

For the assay, the system named is mice.

Protocol: A formalin-inactivated and a double-inactivated (formalin+UV-irradiation) RRV candidate vaccine was adjusted to 10 μg per dose, and then diluted in 4 fold steps. Each dilution was injected into a group of 10 mice. After 3 weeks the mice were boostered with the corresponding amount of the vaccine. Blood samples were drawn at week 3, before the booster, and at week 6, 3 weeks after the booster. The sera were analyzed by a RRV antibody ELISA. The effective dose 50 (ED50), this is the antigen dose which is sufficient to induce seroconversion in 50% of the immunized mice, was then calculated.

Regarding Formalin, for the setting “Week 3, N 60”, the “number of mice with ELISA-Titer 10^1” value came out at 8, the “number of mice with ELISA-Titer 10^2” value amounted to 8, the “number of mice with ELISA-Titer 10^3” value came to 9 and the “number of mice with ELISA-Titer 10^4” value was 0. Moreover, under “Week 3, N 60”, the “number of mice with ELISA-Titer 10^5” value amounted to 0, the “number of mice with ELISA-Titer 10^6” value came out at 0, the “number of mice with ELISA-Titer 10^7” value was 0 and the “number of mice with ELISA-Titer 10^8” value came to 0. Moreover, for the setting “Week 3, N 60”, the “number of mice with ELISA-Titer <10^1” value came out at 35. Moreover, the “number of mice with ELISA-Titer 10^4” value (Week 3, N 60, listed as formalin group) is reported as “no mouse”. Further, where the note is “Week 6, after booster, N 60”, the “number of mice with ELISA-Titer 10^1” value was determined as 7, the “number of mice with ELISA-Titer 10^2” value amounted to 5, the “number of mice with ELISA-Titer 10^3” value was determined as 15 and the “number of mice with ELISA-Titer 10^4” value amounted to 11. Under “Week 6, after booster, N 60”, the “number of mice with ELISA-Titer 10^5” value was 8, the “number of mice with ELISA-Titer 10^6” value came out at 0, the “number of mice with ELISA-Titer 10^7” value came out at 0 and the “number of mice with ELISA-Titer 10^8” value is 0. Also, the “number of mice with ELISA-Titer <10^1” value (Week 6, after booster, N 60) is reported as 14. Also, the “ED50 Week 6 (Booster)” value (mice, 3 weeks after the booster) came out at 33 ng. Moreover, the “ED50 Week 3” value (mice, before the booster, antigen dose inducing seroconversion in 50% of immunized mice) turned out to be 635 ng.
